Legend:
[1] = FIH Study Parts A and B combined: adverse events; assay type: in vivo, human
Source text: Preliminary safety data from Part B (monotherapy dose expansion) is consistent with what has been observed in Part A (monotherapy dose escalation).

[2] = test system: ER+/HER2− locally advanced or metastatic breast cancer; assay: FIH Study Part A: clinical activity (CBR, ORR); assay type: in vivo, human
Source text: Based on a 6 Jun. 2023 data cut-off, evidence of preliminary clinical activity was observed, as assessed by CBR and ORR, in the monotherapy Part A dose escalation cohort of the FIH Study.
Per protocol, the CBR evaluable analysis set included all treated patients who were enrolled at least 24 weeks prior to the data cut-off of analysis. CBR was defined as a confirmed CR or PR per RECIST v1.1 or SD with a minimum duration of 24 weeks.
Per protocol, the response-evaluable analysis set included all treated patients who had measurable disease at baseline and ORR was based on confirmed responses per RECIST v1.1.

MCF7 cells = assay: Live-cell imaging proliferation, MCF7; assay type: cell-based; details: Homo sapiens, 144 h; MCF7, up to 6 days
Source text: Full growth of the cells over this time period is shown by extent of cell confluence with dimethyl sulfoxide (DMSO).

Ikaros = Ikaros (Homo sapiens, UniProt Q13422); assay: Cereblon neomorphic substrate degradation, Ikaros; assay type: cell-based; details: in vitro
Source text: (§1) These drugs bind to cereblon and promote the degradation of novel (neomorphic) substrates.

Aiolos = Aiolos (Homo sapiens, UniProt Q9UKT9); assay: Cereblon neomorphic substrate degradation, Aiolos; assay type: cell-based; details: in vitro
Sequence of Aiolos (Q96SW2 whole entry partner): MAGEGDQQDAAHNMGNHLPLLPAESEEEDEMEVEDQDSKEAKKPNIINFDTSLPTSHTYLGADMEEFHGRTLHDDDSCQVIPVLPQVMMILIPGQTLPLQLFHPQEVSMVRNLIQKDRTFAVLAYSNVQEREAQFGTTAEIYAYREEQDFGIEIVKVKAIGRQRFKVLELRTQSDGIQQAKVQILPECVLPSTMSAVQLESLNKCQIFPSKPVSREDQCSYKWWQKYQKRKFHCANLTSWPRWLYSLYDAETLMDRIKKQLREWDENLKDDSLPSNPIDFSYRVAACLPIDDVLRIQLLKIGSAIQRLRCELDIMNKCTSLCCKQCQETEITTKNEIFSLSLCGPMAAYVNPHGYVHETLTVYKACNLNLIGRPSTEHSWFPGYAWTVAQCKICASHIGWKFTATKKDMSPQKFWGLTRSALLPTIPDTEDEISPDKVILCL
Sequence of Aiolos (Q16531 whole entry partner): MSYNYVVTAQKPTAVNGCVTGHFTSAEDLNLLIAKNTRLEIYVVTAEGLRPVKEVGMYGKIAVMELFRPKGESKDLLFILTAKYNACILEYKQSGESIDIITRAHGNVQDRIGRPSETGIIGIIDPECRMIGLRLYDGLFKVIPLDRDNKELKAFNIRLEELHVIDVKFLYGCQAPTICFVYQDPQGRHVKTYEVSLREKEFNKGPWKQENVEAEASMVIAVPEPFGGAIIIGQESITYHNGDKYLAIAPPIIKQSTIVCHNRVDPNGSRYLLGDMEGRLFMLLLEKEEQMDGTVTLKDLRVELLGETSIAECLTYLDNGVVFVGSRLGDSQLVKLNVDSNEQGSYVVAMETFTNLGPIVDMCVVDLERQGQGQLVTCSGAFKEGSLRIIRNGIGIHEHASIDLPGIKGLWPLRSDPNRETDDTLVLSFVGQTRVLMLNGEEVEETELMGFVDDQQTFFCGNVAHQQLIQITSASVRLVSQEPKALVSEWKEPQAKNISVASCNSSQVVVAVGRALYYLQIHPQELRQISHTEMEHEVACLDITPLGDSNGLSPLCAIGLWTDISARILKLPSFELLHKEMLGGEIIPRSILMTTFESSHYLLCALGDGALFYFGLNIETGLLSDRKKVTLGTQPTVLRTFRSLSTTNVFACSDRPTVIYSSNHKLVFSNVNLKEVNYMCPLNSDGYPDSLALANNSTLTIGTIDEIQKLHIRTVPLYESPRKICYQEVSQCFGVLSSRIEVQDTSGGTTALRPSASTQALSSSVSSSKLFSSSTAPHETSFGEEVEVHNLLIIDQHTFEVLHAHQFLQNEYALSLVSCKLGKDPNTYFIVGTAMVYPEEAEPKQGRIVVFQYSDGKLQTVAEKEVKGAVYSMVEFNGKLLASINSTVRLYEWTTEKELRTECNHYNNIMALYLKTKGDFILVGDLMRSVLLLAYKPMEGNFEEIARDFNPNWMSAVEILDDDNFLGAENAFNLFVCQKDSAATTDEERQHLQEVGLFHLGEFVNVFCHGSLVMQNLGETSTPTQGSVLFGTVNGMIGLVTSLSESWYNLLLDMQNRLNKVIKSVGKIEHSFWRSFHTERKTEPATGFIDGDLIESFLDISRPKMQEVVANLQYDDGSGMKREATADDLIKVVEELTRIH
Sequence of Aiolos (Q9UKT9 whole entry): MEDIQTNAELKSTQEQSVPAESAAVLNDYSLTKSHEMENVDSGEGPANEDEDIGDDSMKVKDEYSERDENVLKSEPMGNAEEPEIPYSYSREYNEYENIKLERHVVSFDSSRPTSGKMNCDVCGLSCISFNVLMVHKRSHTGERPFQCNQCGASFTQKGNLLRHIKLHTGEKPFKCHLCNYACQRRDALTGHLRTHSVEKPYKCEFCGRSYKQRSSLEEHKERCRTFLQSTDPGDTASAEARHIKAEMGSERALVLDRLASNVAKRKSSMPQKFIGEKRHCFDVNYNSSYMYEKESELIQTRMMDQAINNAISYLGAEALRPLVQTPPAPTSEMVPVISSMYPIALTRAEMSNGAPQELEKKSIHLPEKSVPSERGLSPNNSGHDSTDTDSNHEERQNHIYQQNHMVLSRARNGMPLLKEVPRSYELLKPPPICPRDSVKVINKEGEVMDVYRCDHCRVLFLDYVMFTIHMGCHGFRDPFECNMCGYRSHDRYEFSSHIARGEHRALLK
Source text: as §1

hERG channel = hERG channel (Homo sapiens, UniProt Q12809); assay: hERG channel inhibition; assay type: biochemical
Sequence of hERG channel (Q12809 whole entry): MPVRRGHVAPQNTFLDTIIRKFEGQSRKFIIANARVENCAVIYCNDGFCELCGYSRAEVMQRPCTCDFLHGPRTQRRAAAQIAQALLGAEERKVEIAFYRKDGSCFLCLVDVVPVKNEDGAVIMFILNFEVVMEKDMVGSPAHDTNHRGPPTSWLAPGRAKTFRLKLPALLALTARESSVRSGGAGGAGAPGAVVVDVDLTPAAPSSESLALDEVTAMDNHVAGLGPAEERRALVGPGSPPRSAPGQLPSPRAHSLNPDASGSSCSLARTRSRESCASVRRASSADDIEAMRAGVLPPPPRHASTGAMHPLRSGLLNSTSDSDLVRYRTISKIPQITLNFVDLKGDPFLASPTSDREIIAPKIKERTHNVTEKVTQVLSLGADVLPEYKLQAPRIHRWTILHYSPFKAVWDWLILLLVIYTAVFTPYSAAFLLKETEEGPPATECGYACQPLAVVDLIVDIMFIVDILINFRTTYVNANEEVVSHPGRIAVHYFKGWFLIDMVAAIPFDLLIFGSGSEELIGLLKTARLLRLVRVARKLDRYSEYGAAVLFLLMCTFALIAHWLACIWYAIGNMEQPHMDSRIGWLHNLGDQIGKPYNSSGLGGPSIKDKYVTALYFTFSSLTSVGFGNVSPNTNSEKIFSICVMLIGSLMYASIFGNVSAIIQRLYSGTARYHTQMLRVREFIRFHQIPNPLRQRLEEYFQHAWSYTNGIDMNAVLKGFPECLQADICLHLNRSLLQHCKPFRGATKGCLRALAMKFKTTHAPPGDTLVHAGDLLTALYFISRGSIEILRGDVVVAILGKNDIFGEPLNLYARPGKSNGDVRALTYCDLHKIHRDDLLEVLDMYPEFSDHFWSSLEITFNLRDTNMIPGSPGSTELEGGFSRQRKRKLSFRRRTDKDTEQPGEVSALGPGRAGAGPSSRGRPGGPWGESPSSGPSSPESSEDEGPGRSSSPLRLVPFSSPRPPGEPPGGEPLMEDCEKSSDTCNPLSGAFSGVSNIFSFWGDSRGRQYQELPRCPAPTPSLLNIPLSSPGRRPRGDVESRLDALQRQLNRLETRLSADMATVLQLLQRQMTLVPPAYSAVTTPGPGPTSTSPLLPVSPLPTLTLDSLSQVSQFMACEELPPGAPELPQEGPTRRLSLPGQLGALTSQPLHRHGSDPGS
Procedure: The pivotal nonclinical safety studies were conducted in the US in accordance with GLP regulations per the US 21 CFR Part 58. These include the cardiovascular safety pharmacology study in dogs, the pivotal 28-day and 3-month repeat-dose toxicology studies in rats and dogs, and an in vitro phototoxicity assay. The bacterial reverse mutation assay, in vitro micronucleus assay, and 2 in vitro hERG studies were conducted in the UK in accordance with the UK Good Laboratory Practice Monitoring Authority, MHRA: Good Laboratory Practice Regulations 1999, Statutory Instrument 1999 No. 3106 as amended by the Good Laboratory Practice (Codification Amendments Etc.) Regulations, 2004, Statutory Instrument 2004, No. 994; and the OECD GLP and OECD Principles on Good Laboratory Practice ENV/MC/CHEM (98) 17 (Revised in 1997, Issued January 1998).accordance with the OECD Principles of Good Laboratory Practice and as accepted by Regulatory Authorities throughout the European Union, United States of America (FDA), Japan (MHLW), and other countries that are signatories to the OECD Mutual Acceptance of Data Agreement.

P-gp = P-gp (Homo sapiens, UniProt P08183); assay: Efflux transporter substrate assessment (inside-out vesicular assay), P-gp; assay type: in vitro ADME
Sequence of P-gp (P08183 whole entry): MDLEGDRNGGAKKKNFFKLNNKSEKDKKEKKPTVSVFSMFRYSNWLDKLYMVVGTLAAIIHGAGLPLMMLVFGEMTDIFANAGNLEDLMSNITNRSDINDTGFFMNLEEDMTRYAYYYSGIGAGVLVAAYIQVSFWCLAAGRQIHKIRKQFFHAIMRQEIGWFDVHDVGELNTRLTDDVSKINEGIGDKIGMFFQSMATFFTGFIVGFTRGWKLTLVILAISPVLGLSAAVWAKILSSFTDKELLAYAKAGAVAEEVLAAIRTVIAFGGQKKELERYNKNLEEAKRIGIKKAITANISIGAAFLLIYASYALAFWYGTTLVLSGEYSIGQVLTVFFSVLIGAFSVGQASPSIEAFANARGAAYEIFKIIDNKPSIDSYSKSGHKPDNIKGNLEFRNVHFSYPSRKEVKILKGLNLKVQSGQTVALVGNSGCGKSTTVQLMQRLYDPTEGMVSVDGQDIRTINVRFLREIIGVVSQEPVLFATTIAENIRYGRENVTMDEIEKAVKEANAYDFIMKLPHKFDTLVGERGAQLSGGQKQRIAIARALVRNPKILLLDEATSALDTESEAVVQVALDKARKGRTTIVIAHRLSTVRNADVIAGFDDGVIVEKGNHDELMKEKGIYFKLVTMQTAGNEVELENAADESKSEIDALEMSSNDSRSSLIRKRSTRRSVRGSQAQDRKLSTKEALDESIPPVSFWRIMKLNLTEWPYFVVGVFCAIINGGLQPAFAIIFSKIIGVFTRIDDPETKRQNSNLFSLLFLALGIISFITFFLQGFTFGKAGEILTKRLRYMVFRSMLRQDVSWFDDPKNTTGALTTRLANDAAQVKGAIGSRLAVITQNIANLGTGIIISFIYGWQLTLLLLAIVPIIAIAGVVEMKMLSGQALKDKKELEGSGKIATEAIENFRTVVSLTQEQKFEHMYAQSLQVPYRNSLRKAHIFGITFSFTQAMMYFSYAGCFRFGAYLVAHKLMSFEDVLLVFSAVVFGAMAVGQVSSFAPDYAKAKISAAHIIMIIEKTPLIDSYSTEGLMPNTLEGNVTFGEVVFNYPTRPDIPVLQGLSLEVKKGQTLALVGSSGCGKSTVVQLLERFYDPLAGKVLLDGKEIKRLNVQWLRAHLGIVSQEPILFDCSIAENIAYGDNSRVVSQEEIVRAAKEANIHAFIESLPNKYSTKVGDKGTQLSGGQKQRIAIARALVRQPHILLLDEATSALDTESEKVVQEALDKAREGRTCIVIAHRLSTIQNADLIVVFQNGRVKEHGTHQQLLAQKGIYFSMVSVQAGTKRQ

clinical = details: human, in vivo; for AUC: AUCtau
Procedure: Study Design: In the FIH Study: Part A is a Phase I monotherapy dose escalation, and Part B is a Phase 2 monotherapy expansion at 2 RP2D doses (200 mg QD, 500 mg QD).

For `O=C1CC[C@H](N2Cc3cc(N4CCN(CC5CCN(c6ccc([C@@H]7c8ccc(O)cc8CC[C@@H]7c7ccccc7)cc6)CC5)CC4)ccc3C2=O)C(=O)N1` [Compound A, (S)-3-(5-(4-((1-(4-((1R,2S)-6-hydroxy-2-phenyl-1,2,3,4-tetrahydronaphthalen-1-yl)phenyl)piperidin-4-yl)methyl)piperazin-1-yl)-1-oxoisoindolin-2-yl)piperidine-2,6-dione], the “patients with TEAEs” value ([1]; 143 of 154, as of 6 Jun 2023) was 92.9%, the “Any treatment-emergent AE, Any Grade” value ([1]; Part A + B, N=154) was 143 (92.9) n (%) and the “Any treatment-emergent AE, Grade 3+” value ([1]; Part A + B, N=154) was 40 (26.0) n (%). The “Any treatment-related AE, Any Grade” value ([1]; Part A + B, N=154) was 114 (74.0) n (%), the “Any treatment-related AE, Grade 3+” value ([1]; Part A + B, N=154) was 12 (7.8) n (%) and the “TEAE Anemia, Any Grade” value ([1]; Part A + B, N=154) was 16 (10.4) n (%). For the same compound, the “TEAE Anemia, Grade 3+” value ([1]; Part A + B, N=154) was 2 (1.3) n (%), the “TEAE Arthralgia, Any Grade” value ([1]; Part A + B, N=154) was 34 (22.1) n (%) and the “TEAE Arthralgia, Grade 3+” value ([1]; Part A + B, N=154) was 2 (1.3) n (%). The “TEAE Aspartate aminotransferase increased, Any Grade” value ([1]; Part A + B, N=154) was 21 (13.6) n (%), the “TEAE Aspartate aminotransferase increased, Grade 3+” value ([1]; Part A + B, N=154) was 3 (1.9) n (%) and the “TEAE Back pain, Any Grade” value ([1]; Part A + B, N=154) was 21 (13.6) n (%). The “TEAE Back pain, Grade 3+” value ([1]; Part A + B, N=154) was 2 (1.3) n (%), the “TEAE Constipation, Any Grade” value ([1]; Part A + B, N=154) was 41 (26.6) n (%) and the “TEAE Constipation, Grade 3+” value ([1]; Part A + B, N=154) was 0 n (%). The “TEAE Decreased appetite, Any Grade” value ([1]; Part A + B, N=154) was 24 (15.6) n (%), the “TEAE Decreased appetite, Grade 3+” value ([1]; Part A + B, N=154) was 1 (0.6) n (%) and the “TEAE Diarrhea, Any Grade” value ([1]; Part A + B, N=154) was 19 (12.3) n (%). For the same compound, the “TEAE Diarrhea, Grade 3+” value ([1]; Part A + B, N=154) was 0 n (%), the “TEAE Fatigue, Any Grade” value ([1]; Part A + B, N=154) was 62 (40.3) n (%) and the “TEAE Fatigue, Grade 3+” value ([1]; Part A + B, N=154) was 2 (1.3) n (%). The “TEAE Headache, Any Grade” value ([1]; Part A + B, N=154) was 25 (16.2) n (%), the “TEAE Headache, Grade 3+” value ([1]; Part A + B, N=154) was 1 (0.6) n (%) and the “TEAE Hot flush, Any Grade” value ([1]; Part A + B, N=154) was 24 (15.6) n (%). For the same compound, the “TEAE Hot flush, Grade 3+” value ([1]; Part A + B, N=154) was 0 n (%), the “TEAE Hyperglycemia, Any Grade” value ([1]; Part A + B, N=154) was 16 (10.4) n (%) and the “TEAE Hyperglycemia, Grade 3+” value ([1]; Part A + B, N=154) was 0 n (%). For the same compound, the “TEAE Nausea, Any Grade” value ([1]; Part A + B, N=154) was 46 (29.9) n (%), the “TEAE Nausea, Grade 3+” value ([1]; Part A + B, N=154) was 1 (0.6) n (%) and the “TEAE Pain in extremity, Any Grade” value ([1]; Part A + B, N=154) was 17 (11.0) n (%). For the same compound, the “TEAE Pain in extremity, Grade 3+” value ([1]; Part A + B, N=154) was 0 n (%), the “TEAE Vomiting, Any Grade” value ([1]; Part A + B, N=154) was 20 (13.0) n (%) and the “TEAE Vomiting, Grade 3+” value ([1]; Part A + B, N=154) was 0 n (%). For the same compound, the “TRAE Arthralgia, Any Grade” value ([1]; Part A + B, N=154) was 22 (14.3) n (%), the “TRAE Arthralgia, Grade 3+” value ([1]; Part A + B, N=154) was 0 n (%) and the “TRAE Constipation, Any Grade” value ([1]; Part A + B, N=154) was 16 (10.4) n (%). The “TRAE Constipation, Grade 3+” value ([1]; Part A + B, N=154) was 0 n (%), the “TRAE Fatigue, Any Grade” value ([1]; Part A + B, N=154) was 48 (31.2) n (%) and the “TRAE Fatigue, Grade 3+” value ([1]; Part A + B, N=154) was 1 (0.6) n (%). For the same compound, the “TRAE Hot flush, Any Grade” value ([1]; Part A + B, N=154) was 20 (13.0) n (%), the “TRAE Hot flush, Grade 3+” value ([1]; Part A + B, N=154) was 0 n (%) and the “TRAE Nausea, Any Grade” value ([1]; Part A + B, N=154) was 36 (23.4) n (%). For the same compound, the “TRAE Nausea, Grade 3+” value ([1]; Part A + B, N=154) was 1 (0.6) n (%), the TEAE Arthralgia ([1]; Parts A and B, N=154) was 22.1% and the “TEAE Aspartate aminotransferase increased” value ([1]; Parts A and B, N=154) was 13.6%. The TEAE Back pain ([1]; Parts A and B, N=154) was 13.6%, the TEAE Constipation ([1]; Parts A and B, N=154) was 26.6% and the TEAE Decreased appetite ([1]; Parts A and B, N=154) was 15.6%. For the same compound, the TEAE Diarrhea ([1]; Parts A and B, N=154) was 12.3%, the TEAE Fatigue ([1]; Parts A and B, N=154) was 40.3% and the TEAE Headache ([1]; Parts A and B, N=154) was 16.2%. For the same compound, the TEAE Nausea ([1]; Parts A and B, N=154) was 29.9%, the “TEAE Pain in extremity” value ([1]; Parts A and B, N=154) was 11.0% and the TEAE Vomiting ([1]; Parts A and B, N=154) was 13.0%. For the same compound, the TEAE anemia ([1]; Parts A and B, N=154) was 10.4%, the TEAE hot flush ([1]; Parts A and B, N=154) was 15.6% and the TEAE hyperglycaemia ([1]; Parts A and B, N=154) was 10.4%. It also gave a TRAE Arthralgia ([1]; Parts A and B, N=154) of 14.3%, a TRAE Constipation ([1]; Parts A and B, N=154) of 10.4% and a TRAE Fatigue ([1]; Parts A and B, N=154) of 31.2%. The TRAE Nausea ([1]; Parts A and B, N=154) was 23.4%, the TRAE hot flush ([1]; Parts A and B, N=154) was 13.0% and the ORR ([2]; 7 of 61 response-evaluable, confirmed PR, 95% CI 4.7%, 22.2%) was 11.5%. The CBR ([2]; 30 of 83 evaluable patients, 95% CI 25.9%, 47.4%, cut-off 6 Jun 2023) was 36.1%, the CBR ([2]; Phase 1, ESR1-mutant tumors) was 50% and the CBR ([2]; Phase 1, all patients) was 40%. The GI50 (MCF7 cells) was 4 nM, the “degradation of Ikaros” value (Ikaros) was “did not degrade” and the “degradation of Aiolos” value (Aiolos) was “did not degrade”. For the same compound, the IC50 (hERG channel) was greater than 25100 nM, the “unbound Cmax margin to hERG IC50” value (hERG channel; recommended Phase 3 dose of 200 mg) was “approximately 170 ×” and the “substrate of P-gp” value (P-gp) was “unlikely to be a substrate”. It also gave a half-life (clinical; 30 mg) of 31 h, a Tmax (clinical; 30 mg, Tmax) of 4 h and a half-life (clinical; 60 mg) of 33 h. The Tmax (clinical; 60 mg, Tmax) was 6 h, the half-life (clinical; 100 mg) was 29 h and the Tmax (clinical; 100 mg, Tmax) was 5.8 h. It also gave a half-life (clinical; 120 mg) of 27 h, a Cmax (clinical; 120 mg) of 404 ng/mL and a Tmax (clinical; 120 mg, Tmax) of 5.9 h. It also gave a half-life (clinical; 180 mg) of 26 h, a Cmax (clinical; 180 mg) of 555 ng/mL and a Tmax (clinical; 180 mg, Tmax) of 6 h. For the same compound, the half-life (clinical; 200 mg) was 23 h, the AUC (clinical; 200 mg) was 9110 ng·h/mL and the Cmax (clinical; 200 mg) was 534 ng/mL. For the same compound, the Tmax (clinical; 200 mg, Tmax) was 5.8 h, the AUC(0-t) (clinical; 250 mg, AUCtau (AUC0-8)) was 2920 ng·h/mL and the AUC(0-t) (clinical; 250 mg, AUCtau (AUC0-12)) was 20600 ng·h/mL. It also gave a Tmax (clinical; 250 mg, Tmax) of 6.9 h, a half-life (clinical; 360 mg) of 28 h and a Tmax (clinical; 360 mg, Tmax) of 5.8 h. The half-life (clinical; 500 mg) was 28 h, the Cmax (clinical; 500 mg) was 1050 ng/mL and the Tmax (clinical; 500 mg, Tmax) was 4.9 h. For the same compound, the half-life (clinical; 700 mg) was 12.4 h, the AUC (clinical; 700 mg) was 19600 ng·h/mL and the Cmax (clinical; 700 mg) was 1450 ng/mL. The Tmax (clinical; 700 mg, Tmax) was 5.8 h, the Tmax (clinical; Tmax) was 4.1 h and the Tmax (clinical; median Tmax across dose levels) was 4 to 7 h.

— US20260069588A1, “VEPDEGESTRANT FOR USE IN TREATING CANCER” (Arvinas Operation, Inc., priority 2022, published 2026)
